The subject of one data set is KCL-22 cells. Kind of data set: Resistance assay: relapse of KCL-22 cells in prolonged liquid culture (CML acquired resistance model). The class given is cell-based, human. The note with it: for relapse of KCL-22 cells on 5 μM STI-571 in combination / cell death by the inhibitor alone: 300 μM splitomicin or 15 mM nicotinamide; for cell death by the inhibitor alone: first two weeks; for relapse of KCL-22 cells on imatinib (STI-571) in combination with the inhibitor: prolonged culture. The text has this: Cells were maintained in these cultures without changing medium.
Cells were maintained in these cultures without changing medium. Aliquots of cells were taken out at specified time points and cell numbers counted using a hematocytometer. Cell viability was accessed by trypan blue exclusion where necessary.

The test system of a further data set is HIC1. Kind of data set: HIC1 expression / SIRT1 level after HDAC and DNMT inhibitors. Format: cell-based, human. The note with it: KCL-22 cells, alone or in combination. An excerpt: Total cellular RNA with Trizol (Invitrogen) using a standard protocol. First strand DNA was synthesized and HIC1 expression by quantitative real-time RT-PCR using a kit with SYBR Green label (Invitrogen) as per the manufacture's instruction on a BioRad machine OPTICON. The following are the HIC1 primers (spanning introns), 5′-[…]-3′(exon 1a) and 5′-[…]-3′ (Exon 2). [>ref|NT—010718.15|Hs17—10875:1561637-1565694 Homo sapiens chromosome 17 genomic contig, reference assembly]
SIRT1 expression was analyzed by Western blot using 1:5000 diluted rabbit monoclonal SIRT1 antibody (Epitomics). Controls used were GAPDH or actin as loading controls with rabbit anti-GAPDH (Trevigen) or anti-actin (Sigma) at 1:5000 dilution. GAPDH [>ref|NT—009759.15|Hs12—9916:6497433-6502281 Homo sapiens chromosome 12 genomic contig, reference assembly] primers used are as follows: […]

Another data set deals with KCL-22M cells. The note with it: 1 μM inhibitor.
The test system of a further data set is FOXO1. Kind of data set: Flow cytometry assay of acetylation of FOXO1 in KCL-22 cells. The class given is cell-based, human. The note with it: compound treatment for 24 h. The method, then: SIRT1 inhibitor-induced acetylation of cellular SIRT1 substrates, Ku70 and FOXO proteins, are determined by immunoprecipitation of these proteins followed by Western blot analysis for acetyl lysine. Acetylation of FOXO1 is also directly examined by flow cytometry-based analysis as done in FIG. 40D.
(In general: Flow cytometry measures light scatter and fluorescence of single cells or particles in a stream.)

In a further data set the target is T1, SIRT1 (Homo sapiens, UniProt Q96EB6).
T1 sequence (Q96EB6 1-747): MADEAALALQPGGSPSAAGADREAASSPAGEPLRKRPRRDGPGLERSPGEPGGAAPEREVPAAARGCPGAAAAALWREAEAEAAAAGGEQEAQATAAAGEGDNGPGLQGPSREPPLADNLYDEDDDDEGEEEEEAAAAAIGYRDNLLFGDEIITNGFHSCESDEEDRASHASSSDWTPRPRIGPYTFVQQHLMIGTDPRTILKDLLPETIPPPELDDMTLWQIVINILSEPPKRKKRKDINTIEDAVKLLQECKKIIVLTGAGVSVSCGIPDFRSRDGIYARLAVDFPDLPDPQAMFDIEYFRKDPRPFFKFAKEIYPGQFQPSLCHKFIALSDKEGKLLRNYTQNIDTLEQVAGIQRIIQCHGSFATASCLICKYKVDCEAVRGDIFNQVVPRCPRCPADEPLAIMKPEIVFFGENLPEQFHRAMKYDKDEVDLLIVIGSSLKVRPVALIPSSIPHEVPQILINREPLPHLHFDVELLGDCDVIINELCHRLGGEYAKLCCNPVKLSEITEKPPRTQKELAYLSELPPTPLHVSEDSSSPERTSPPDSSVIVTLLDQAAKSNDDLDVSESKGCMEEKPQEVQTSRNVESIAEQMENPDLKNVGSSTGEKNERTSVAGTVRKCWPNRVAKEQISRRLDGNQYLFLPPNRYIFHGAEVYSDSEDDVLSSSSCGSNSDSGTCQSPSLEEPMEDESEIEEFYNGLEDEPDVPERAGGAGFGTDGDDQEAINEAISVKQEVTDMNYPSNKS
Kind of data set: FRET-based SIRT1 inhibition assay. The note with it: All compounds in 50 μM.

Another data set has as its system BCR-ABL mutants. The note with it: cited from earlier work.
For data set [1], the system named is CML patients with T315I mutation. The note with it: human, in vivo; cited from earlier work.

“Also recorded” adds a separate entry of the source.

These results are taken from patent publication US9176114B2, “Cell culture model for acquired chemoresistance of chronic myelogenous leukemia and related methods for identifying agents to overcome resistance” (CITY OF HOPE, priority 2007, dated 2015).

Protocol for KCL-22M cells: Cell cycle was analyzed by fixing cells with 70% ethanol at −20° C. overnight. After washing, cells were resuspended in phosphate-buffered saline containing 1 mg/ml RNase A, incubated for 30 min at 37° C., and then stained with propidine iodine (50 μg/ml) for 30 min at room temperature before flow cytometry analysis. Cell proliferation was analyzed using a XTT Cell Proliferation kit (Roche Applied Science), and apoptosis was analyzed with annexin V kit (BD Pharmingen) as per the manufacturer's instruction.

Turning to `CC(=O)N[C@@H](CS)C(=O)O` [NAC, N-acetylcysteine], in the data set on KCL-22 cells (50 mM NAC), the cytotoxicity result is given as “significant cytotoxicity”.

As to `CCN(C(C)=O)c1cnc(C=NNC(N)=S)c2ccccc12` [compound 687305], in the data set with KCL-22 cells, the “prevention of CML cell relapse upon imatinib compared with sirtinol (50 μM)” value (shortened to “prevention … compared with sirtinol (50 μM)”) is “more effective in preventing CML cell relapse upon imatinib treatment than an effective dose of sirtinol”.

Consider `NC(=O)c1cccnc1` [nicotinamide], for which, in the data set with KCL-22 cells, the “lowest dose that blocked relapse on imatinib” value was found to be 1 µM; the “relapse of KCL-22 cells on 5 μM STI-571 in combination” value was “effectively blocked; also recorded: blocked relapse”; the “cell death by the inhibitor alone” value is “did not, by themselves, induce significant cell death”; the “relapse of KCL-22 cells on imatinib (STI-571) in combination with the inhibitor” value is recorded as “blocks relapse”.

Take `Nc1ncn([C@H]2C[C@H](O)[C@@H](CO)O2)c(=O)n1` [AZA, 5-aza-2-deoxycytidine]: in the data set on KCL-22 cells (1 μM AZA with STI-571), the “relapse on AZA plus STI-571” value was “did successfully block relapse on 2.5 and 5 μM; also recorded: blocked relapse at 2.5 and 5 μM of STI-571”. Further, the “reactivation of HIC1 expression / reduction of SIRT1 level” value with HIC1 is listed as “could not reactivate HIC1 expression or reduce SIRT1 level”. Further, in the data set on KCL-22M cells, the “growth of KCL-22M cells” value is given as “inhibited its growth but did not promote significant cell death”.

As to `Oc1ccc2ccccc2c1C1=NNc2n[nH]c(=S)n2N1` [compound 163580], in the data set on KCL-22 cells, the “prevention … compared with sirtinol (50 μM)” value is on record as “more effective in preventing CML cell relapse upon imatinib treatment than an effective dose of sirtinol”.

On to `COc1ccc2nc3cc(Cl)ccc3c(NCCCCN3CCCC3)c2n1.Cl.Cl.Cl` [compound 261408], for which, in the data set on KCL-22 cells, the “prevention … compared with sirtinol (50 μM)” value was “more effective in preventing CML cell relapse upon imatinib treatment than an effective dose of sirtinol” and the toxicity to cells entry is recorded as “too toxic to cells”.

With `Clc1ccc2nc(CCSCCc3nc4ccc(Cl)cc4[nH]3)[nH]c2c1` [compound 628445], the “prevention … compared with sirtinol (50 μM)” value with KCL-22 cells was “more effective in preventing CML cell relapse upon imatinib treatment than an effective dose of sirtinol”.

With `CC(=NNC(=O)c1ccncc1)c1ccc2ccccc2c1O` [compound 24, N′-(1-(1-hydroxy-2-naphthyl)ethylidene)isonicotinohydrazide], the “inhibitory activity (block of CML relapse) compared with compound 163580” value in the data set with KCL-22 cells was “better inhibitory activity than 163580”. In the data set on FOXO1, the “acetylation of FOXO1” value was “outperformed sirtinol and tenovin-6”. The “SIRT1 inhibition in FRET-based biochemical assay” value on SIRT1 is “outperformed sirtinol and tenovin-6”.

For the compound `Cc1cc(Nc2cc(N3CCN(C)CC3)nc(Sc3ccc(NC(=O)C4CC4)cc3)n2)n[nH]1` [VX-680], the “inhibition of T315I BCR-ABL” value with BCR-ABL mutants was “potently inhibits”. The clinical response entry in data set [1] is recorded as “Three CML patients with T315I mutation responded”.

For `O=C(NN=Cc1c(O)ccc2ccccc12)c1ccncc1` [compound 22, N′-((2-hydroxyl-1-naphthyl)methylene)isonicotinohydrazide], the “inhibitory activity (block of CML relapse) compared with compound 163580” value in the data set on KCL-22 cells was “better inhibitory activity than 163580”. In the data set with FOXO1, the “acetylation of FOXO1” value is “outperformed sirtinol and tenovin-6”. Moreover, on SIRT1, the “SIRT1 inhibition in FRET-based biochemical assay” value is “outperformed sirtinol and tenovin-6”.

Consider `Cc1cn(-c2cc(NC(=O)c3ccc(C)c(Nc4nccc(-c5cccnc5)n4)c3)cc(C(F)(F)F)c2)cn1` [Nilotinib], for which the BCR-ABL mutants inhibited entry in the data set with BCR-ABL mutants was “inhibits most of the known mutants with the exception of the T315I mutation”.

With `O=C1CCc2c(ccc3ccccc23)O1` [splitomicin], in the data set with KCL-22 cells, the “relapse of KCL-22 cells on 5 μM STI-571 in combination” value is recorded as “effectively blocked; also recorded: blocked relapse”; the “cell death by the inhibitor alone” value is “did not, by themselves, induce significant cell death”; the “relapse of KCL-22 cells on imatinib (STI-571) in combination with the inhibitor” value is reported as “blocks relapse”.
